Measured values published in ChEMBL document CHEMBL2384983, “A cyclodextrin-capped histone deacetylase inhibitor” (Bioorg Med Chem Lett, 2013).

Columns and labels:
[1] = target: Histone deacetylase 3 (Homo sapiens, UniProt O15379); test: Inhibition of HDAC3 (unknown origin)
[2] = target: Histone deacetylase 2 (Homo sapiens, UniProt Q92769); test: Inhibition of HDAC2 (unknown origin)
[3] = target: T1, Histone deacetylase 8 (Homo sapiens, UniProt Q9BY41); test: Inhibition of HDAC8 (unknown origin)
T1 sequence (Q9BY41 whole entry): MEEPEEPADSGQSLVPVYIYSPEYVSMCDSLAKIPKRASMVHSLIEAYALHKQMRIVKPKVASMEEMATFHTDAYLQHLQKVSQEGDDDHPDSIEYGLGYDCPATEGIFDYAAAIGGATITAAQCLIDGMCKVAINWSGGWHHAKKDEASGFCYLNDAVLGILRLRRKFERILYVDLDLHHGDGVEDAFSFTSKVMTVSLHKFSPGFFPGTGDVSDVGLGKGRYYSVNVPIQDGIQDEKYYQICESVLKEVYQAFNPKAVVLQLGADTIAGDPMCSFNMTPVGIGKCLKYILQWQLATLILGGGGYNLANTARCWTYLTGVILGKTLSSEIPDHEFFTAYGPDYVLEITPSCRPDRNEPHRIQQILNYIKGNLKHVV

[4] = target: T2, Protein deacetylase HDAC6 (Homo sapiens, UniProt Q9UBN7); test: Inhibition of HDAC6 (unknown origin)
T2 sequence (Q9UBN7 whole entry): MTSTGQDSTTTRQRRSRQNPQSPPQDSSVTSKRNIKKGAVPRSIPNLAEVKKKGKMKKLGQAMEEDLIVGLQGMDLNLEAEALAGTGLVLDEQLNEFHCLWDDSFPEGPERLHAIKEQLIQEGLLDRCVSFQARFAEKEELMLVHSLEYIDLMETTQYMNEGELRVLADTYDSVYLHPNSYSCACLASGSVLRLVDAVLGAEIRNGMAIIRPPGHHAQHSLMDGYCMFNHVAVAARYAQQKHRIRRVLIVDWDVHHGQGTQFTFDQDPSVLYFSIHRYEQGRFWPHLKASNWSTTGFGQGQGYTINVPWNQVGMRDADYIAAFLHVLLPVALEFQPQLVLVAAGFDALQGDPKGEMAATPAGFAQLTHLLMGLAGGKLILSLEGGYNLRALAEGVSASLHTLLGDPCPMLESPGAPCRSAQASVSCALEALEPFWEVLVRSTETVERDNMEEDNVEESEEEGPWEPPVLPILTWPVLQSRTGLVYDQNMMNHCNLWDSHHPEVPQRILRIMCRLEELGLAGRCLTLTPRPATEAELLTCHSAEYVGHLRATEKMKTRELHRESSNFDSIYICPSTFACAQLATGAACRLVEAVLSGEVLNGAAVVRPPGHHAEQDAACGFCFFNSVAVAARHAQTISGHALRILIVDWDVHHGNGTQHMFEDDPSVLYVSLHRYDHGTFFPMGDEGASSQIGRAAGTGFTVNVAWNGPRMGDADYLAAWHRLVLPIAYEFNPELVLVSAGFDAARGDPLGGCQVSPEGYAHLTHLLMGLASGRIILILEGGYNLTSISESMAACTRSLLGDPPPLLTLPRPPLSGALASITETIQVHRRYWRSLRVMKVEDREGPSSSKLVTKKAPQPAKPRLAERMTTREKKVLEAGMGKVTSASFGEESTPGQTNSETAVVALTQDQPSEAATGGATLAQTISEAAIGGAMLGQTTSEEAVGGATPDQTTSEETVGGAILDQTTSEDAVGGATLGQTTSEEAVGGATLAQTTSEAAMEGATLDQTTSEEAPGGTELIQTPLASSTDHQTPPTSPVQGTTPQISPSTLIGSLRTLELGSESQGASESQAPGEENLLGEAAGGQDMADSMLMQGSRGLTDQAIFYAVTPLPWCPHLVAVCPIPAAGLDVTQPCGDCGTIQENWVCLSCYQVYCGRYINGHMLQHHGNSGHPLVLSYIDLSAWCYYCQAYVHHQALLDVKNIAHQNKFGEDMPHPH

[5] = target: Histone deacetylase 1 (Homo sapiens, UniProt Q13547); test: Inhibition of HDAC1 (unknown origin)
Histone deacetylase 1, sequence (Q13547 whole entry): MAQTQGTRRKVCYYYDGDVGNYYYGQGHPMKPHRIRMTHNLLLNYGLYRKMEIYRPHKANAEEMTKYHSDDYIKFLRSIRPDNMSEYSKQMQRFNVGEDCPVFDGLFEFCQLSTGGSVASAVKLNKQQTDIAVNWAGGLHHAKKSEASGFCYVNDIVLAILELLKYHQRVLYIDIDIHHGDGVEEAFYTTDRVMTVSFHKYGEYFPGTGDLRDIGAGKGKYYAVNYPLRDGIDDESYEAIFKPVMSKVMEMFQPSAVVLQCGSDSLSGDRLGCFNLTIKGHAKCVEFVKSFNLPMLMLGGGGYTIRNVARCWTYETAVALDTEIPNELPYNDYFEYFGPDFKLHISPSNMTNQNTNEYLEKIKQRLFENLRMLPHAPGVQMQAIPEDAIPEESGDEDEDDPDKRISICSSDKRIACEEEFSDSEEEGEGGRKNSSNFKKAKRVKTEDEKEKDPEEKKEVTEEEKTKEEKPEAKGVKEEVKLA

Histone deacetylase 3, sequence (O15379 whole entry): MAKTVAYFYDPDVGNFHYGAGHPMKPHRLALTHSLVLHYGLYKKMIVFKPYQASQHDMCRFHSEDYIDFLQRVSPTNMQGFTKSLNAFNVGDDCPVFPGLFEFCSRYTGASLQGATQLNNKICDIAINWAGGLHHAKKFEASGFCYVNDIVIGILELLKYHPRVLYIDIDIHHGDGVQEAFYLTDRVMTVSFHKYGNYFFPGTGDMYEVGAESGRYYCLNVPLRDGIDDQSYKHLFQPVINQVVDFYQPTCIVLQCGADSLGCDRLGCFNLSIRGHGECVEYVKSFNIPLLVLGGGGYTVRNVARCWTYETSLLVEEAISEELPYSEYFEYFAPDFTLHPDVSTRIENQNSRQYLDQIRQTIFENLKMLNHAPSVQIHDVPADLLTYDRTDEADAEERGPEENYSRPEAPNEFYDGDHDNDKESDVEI
Histone deacetylase 2, sequence (Q92769 whole entry): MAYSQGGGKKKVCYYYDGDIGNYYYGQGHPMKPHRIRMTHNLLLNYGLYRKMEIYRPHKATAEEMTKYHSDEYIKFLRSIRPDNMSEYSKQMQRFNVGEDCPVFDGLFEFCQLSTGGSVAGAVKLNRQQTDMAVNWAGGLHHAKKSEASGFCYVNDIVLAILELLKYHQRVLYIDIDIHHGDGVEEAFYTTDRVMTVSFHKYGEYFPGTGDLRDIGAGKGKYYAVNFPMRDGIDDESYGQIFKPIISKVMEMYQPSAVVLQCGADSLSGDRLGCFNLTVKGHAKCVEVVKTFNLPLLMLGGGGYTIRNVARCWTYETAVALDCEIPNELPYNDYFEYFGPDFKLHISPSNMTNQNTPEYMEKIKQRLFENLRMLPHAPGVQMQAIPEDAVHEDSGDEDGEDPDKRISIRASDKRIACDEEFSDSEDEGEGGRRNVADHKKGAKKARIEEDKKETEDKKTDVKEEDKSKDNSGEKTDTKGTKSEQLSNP

O=C(CCCCCCC(=O)NC[C@H]1O[C@@H]2O[C@H]3[C@H](O)[C@@H](O)[C@@H](O[C@H]4[C@H](O)[C@@H](O)[C@@H](O[C@H]5[C@H](O)[C@@H](O)[C@@H](O[C@H]6[C@H](O)[C@@H](O)[C@@H](O[C@H]7[C@H](O)[C@@H](O)[C@@H](O[C@H]8[C@H](O)[C@@H](O)[C@@H](O[C@H]1[C@H](O)[C@H]2O)O[C@@H]8CO)O[C@@H]7CO)O[C@@H]6CO)O[C@@H]5CO)O[C@@H]4CO)O[C@@H]3CO)NO
IC50 [1]: 1600 nM | IC50 [2]: 1200 nM | IC50 [3]: 6000 nM | IC50 [4]: 120 nM | IC50 [5]: 630 nM
